ChEMBL document CHEMBL1156712, “CNS depressant and anticonvulsant activities of some novel 3-[5-substituted 1,3,4-thiadiazole-2-yl]-2-styryl quinazoline-4(3H)-ones” (Eur J Med Chem, 2008)
Calls of active or inactive are those of the source. The calls are words filed in the database; no cut-off is given here.

Columns and labels:
Mus musculus [1] = experiment: Anticonvulsant activity in mouse at 300 mg/kg, ip after 0.5 hrs by scPTZ test; assay type: functional, organism-based; design: dose 300 mg/kg
Mus musculus [2] = experiment: Anticonvulsant activity in mouse at 300 mg/kg, ip after 4 hrs by scPTZ test; assay type: functional, organism-based; design: dose 300 mg/kg
Mus musculus [3] = experiment: Anticonvulsant activity in mouse at 300 mg/kg, ip after 4 hrs by MES test; assay type: functional, organism-based; design: dose 300 mg/kg
Mus musculus [4] = experiment: Neurotoxicity in mouse assessed as minimal motor impairment at 300 mg/kg, ip after 0.5 hrs by rotarod test; assay type: toxicity, organism-based; design: dose 300 mg/kg, route intraperitoneal; conditions: in vivo
Mus musculus [5] = experiment: Neurotoxicity in mouse assessed as minimal motor impairment at 300 mg/kg, ip after 4 hrs by rotarod test; assay type: toxicity, organism-based; design: dose 300 mg/kg, route intraperitoneal; conditions: in vivo
Rattus norvegicus = experiment: Central nervous system depressant activity in Wistar rat assessed as immobility time at 100 mg/kg, po after 1 hr by forced swim pool test; assay type: functional
Mus musculus [6] = experiment: Anticonvulsant activity in mouse at 300 mg/kg, ip after 0.5 hrs by MES test; assay type: functional, organism-based; design: dose 300 mg/kg
Mus musculus [7] = experiment: Anticonvulsant activity in ip dosed mouse after 4 hrs by MES test; assay type: functional
Mus musculus [8] = experiment: Neurotoxicity in ip dosed mouse assessed as minimal motor impairment after 4 hrs by rotarod test; assay type: toxicity, organism-based; conditions: in vivo
Mus musculus [9] = experiment: Neurotoxicity in ip dosed mouse assessed as minimal motor impairment after 0.5 hrs by rotarod test; assay type: toxicity, organism-based; conditions: in vivo
Mus musculus [10] = experiment: Anticonvulsant activity in ip dosed mouse after 0.5 hrs by MES test; assay type: functional
Mus musculus [11] = experiment: Anticonvulsant activity in ip dosed mouse after 0.5 hrs by scPTZ test; assay type: functional
Mus musculus [12] = experiment: Anticonvulsant activity in ip dosed mouse after 4 hrs by scPTZ test; assay type: functional
Mus musculus [13] = experiment: Toxicity in mouse at 300 mg/kg, ip after 4 hrs; assay type: organism-based; design: dose 300 mg/kg, route intraperitoneal; conditions: in vivo
Mus musculus [14] = experiment: Neurotoxicity in ip dosed mouse assessed as minimal motor impairment at 100 mg/kg, ip after 0.25 hrs by rotarod test; assay type: toxicity, organism-based; design: dose 100 mg/kg, route intraperitoneal; conditions: in vivo
Mus musculus [15] = experiment: Neurotoxicity in ip dosed mouse assessed as minimal motor impairment at 100 mg/kg, ip after 1 hr by rotarod test; assay type: toxicity, organism-based; design: dose 100 mg/kg, route intraperitoneal; conditions: in vivo
Mus musculus [16] = experiment: Neurotoxicity in ip dosed mouse assessed as loss of righting reflux after 0.5 hrs; assay type: toxicity, organism-based; conditions: in vivo

In the case of `O=c1c2ccccc2nc(/C=C/c2ccncc2)n1-c1nnc(/C=C/c2ccccc2)s1`, the Activity (Mus musculus [1]) is reported as “inactive”, the Activity (Mus musculus [2]) is reported as “inactive” and the Activity (Mus musculus [3]) is reported as “inactive”. The Activity (Mus musculus [4]) was “Non-toxic”, the Activity (Mus musculus [5]) was “Non-toxic” and the Time (Rattus norvegicus) was 114.42 s. The Activity (Mus musculus [6]) was “inactive”.

In the case of `O=c1c2ccccc2nc(/C=C/c2ccncc2)n1-c1nnc(-c2ccccc2)s1`, the Activity (Mus musculus [1]) is reported as “inactive”, the Activity (Mus musculus [2]) is reported as “inactive” and the Activity (Mus musculus [3]) is reported as “inactive”. The Activity (Mus musculus [4]) was “Non-toxic”, the Activity (Mus musculus [5]) was “Non-toxic” and the Time (Rattus norvegicus) was 83.23 s. The Activity (Mus musculus [6]) was “inactive”.

In the case of `O=C1NC(=O)C(c2ccccc2)(c2ccccc2)N1` [PHENYTOIN], the Active dose (Mus musculus [7]) is reported as 30 mg/kg, the Activity (Mus musculus [1]) is reported as “inactive” and the Activity (Mus musculus [8]) is reported as 100 mg/kg. For the same compound, the Activity (Mus musculus [2]) was “inactive”, the Activity (Mus musculus [9]) was 100 mg/kg and the Activity (Mus musculus [10]) was 30 mg/kg.

Work on `NC(=O)N1c2ccccc2C=Cc2ccccc21` [CARBAMAZEPINE] yielded an Active dose (Mus musculus [7]) of 100 mg/kg, an Activity (Mus musculus [8]) of 100 mg/kg and an Activity (Mus musculus [11]) of 100 mg/kg. For the same compound, the Activity (Mus musculus [12]) was 300 mg/kg, the Activity (Mus musculus [9]) was 100 mg/kg and the Activity (Mus musculus [10]) was 30 mg/kg.

With `O=c1c2ccccc2nc(/C=C/c2ccc(Cl)cc2)n1-c1nnc(-c2ccccc2)s1` the Active dose (Mus musculus [7]) was 300 mg/kg, the Activity (Mus musculus [11]) was 300 mg/kg and the Activity (Mus musculus [13]) was “Toxic”. The Activity (Mus musculus [4]) was “Non-toxic”, the Activity (Mus musculus [5]) was “Non-toxic” and the Time (Rattus norvegicus) was 103.26 s. It also gave an Activity (Mus musculus [12]) of 300 mg/kg and an Activity (Mus musculus [10]) of 100 mg/kg.

In the case of `COc1ccc(-c2nnc(-n3c(/C=C/c4cccc(Cl)c4)nc4ccccc4c3=O)s2)cc1`, the Activity (Mus musculus [1]) is reported as “inactive”, the Activity (Mus musculus [2]) is reported as “inactive” and the Activity (Mus musculus [3]) is reported as “inactive”. For the same compound, the Activity (Mus musculus [4]) was “Non-toxic”, the Activity (Mus musculus [5]) was “Non-toxic” and the Time (Rattus norvegicus) was 163.21 s. For the same compound, the Activity (Mus musculus [6]) was “inactive”.

In the case of `CCC1(C)CC(=O)NC1=O` (centres undefined) [ETHOSUXIMIDE], the Activity (Mus musculus [2]) is reported as “inactive”, the Activity (Mus musculus [11]) is reported as 300 mg/kg and the Activity (Mus musculus [3]) is reported as “inactive”. The Activity (Mus musculus [4]) was “Non-toxic”, the Activity (Mus musculus [5]) was “Non-toxic” and the Activity (Mus musculus [6]) was “inactive”.

`CCCC(CCC)C(=O)[O-].[Na+]` [VALPROATE SODIUM] was tested, and the Activity (Mus musculus [2]) was “inactive”, the Activity (Mus musculus [11]) was 300 mg/kg and the Activity (Mus musculus [3]) was “inactive”. For the same compound, the Activity (Mus musculus [4]) was “Non-toxic”, the Activity (Mus musculus [5]) was “Non-toxic” and the Activity (Mus musculus [6]) was “inactive”.

For `O=c1c2ccccc2nc(/C=C/c2ccc(Cl)cc2)n1-c1nnc(-c2cccc(Cl)c2)s1`, the Activity (Mus musculus [11]) was 300 mg/kg, the Activity (Mus musculus [3]) was “inactive” and the Activity (Mus musculus [5]) was “Non-toxic”. For the same compound, the Activity (Mus musculus [14]) was 100 mg/kg, the Time (Rattus norvegicus) was 127.48 s and the Activity (Mus musculus [12]) was 300 mg/kg. The Activity (Mus musculus [6]) was “inactive”, the Activity (Mus musculus [9]) was 300 mg/kg and the Activity (Mus musculus [15]) was 100 mg/kg.

In the case of `O=c1c2ccccc2nc(/C=C/c2ccncc2)n1-c1nnc(-c2ccc(Cl)cc2)s1`, the Active dose (Mus musculus [7]) is reported as 100 mg/kg, the Activity (Mus musculus [11]) is reported as 300 mg/kg and the Activity (Mus musculus [5]) is reported as “Non-toxic”. For the same compound, the Time (Rattus norvegicus) was 99.82 s, the Activity (Mus musculus [12]) was 300 mg/kg and the Activity (Mus musculus [6]) was “inactive”. For the same compound, the Activity (Mus musculus [9]) was 300 mg/kg.

For `O=c1c2ccccc2nc(/C=C/c2cccc(Cl)c2)n1-c1nnc(-c2cccc(Cl)c2)s1`, the Activity (Mus musculus [1]) was “inactive”, the Activity (Mus musculus [2]) was “inactive” and the Activity (Mus musculus [3]) was “inactive”. For the same compound, the Activity (Mus musculus [4]) was “Non-toxic”, the Activity (Mus musculus [5]) was “Non-toxic” and the Time (Rattus norvegicus) was 175.83 s. For the same compound, the Activity (Mus musculus [6]) was “inactive”.

In the case of `O=c1c2ccccc2nc(/C=C/c2ccncc2)n1-c1nnc(-c2cccc(Cl)c2)s1`, the Activity (Mus musculus [1]) is reported as “inactive”, the Activity (Mus musculus [8]) is reported as 300 mg/kg and the Activity (Mus musculus [2]) is reported as “inactive”. The Activity (Mus musculus [3]) was “inactive”, the Time (Rattus norvegicus) was 142.36 s and the Activity (Mus musculus [6]) was “inactive”. The Activity (Mus musculus [9]) was 300 mg/kg.

`O=c1c2ccccc2nc(/C=C/c2ccc(Cl)cc2)n1-c1nnc(-c2ccc(Cl)cc2)s1` was tested, and the Activity (Mus musculus [1]) was “inactive”, the Activity (Mus musculus [2]) was “inactive” and the Activity (Mus musculus [3]) was “inactive”. The Activity (Mus musculus [5]) was “Non-toxic”, the Time (Rattus norvegicus) was 117.93 s and the Activity (Mus musculus [6]) was “inactive”. The Activity (Mus musculus [9]) was 300 mg/kg.

For `O=c1c2ccccc2nc(/C=C/c2cccc(Cl)c2)n1-c1nnc(/C=C/c2ccccc2)s1`, the Activity (Mus musculus [1]) was “inactive”, the Activity (Mus musculus [2]) was “inactive” and the Activity (Mus musculus [3]) was “inactive”. For the same compound, the Activity (Mus musculus [4]) was “Non-toxic”, the Activity (Mus musculus [5]) was “Non-toxic” and the Time (Rattus norvegicus) was 187.91 s. For the same compound, the Activity (Mus musculus [6]) was “inactive”.

`COc1ccc(-c2nnc(-n3c(/C=C/c4ccncc4)nc4ccccc4c3=O)s2)cc1` was tested, and the Activity (Mus musculus [1]) was “inactive”, the Activity (Mus musculus [2]) was “inactive” and the Activity (Mus musculus [3]) was “inactive”. For the same compound, the Activity (Mus musculus [4]) was “Non-toxic”, the Activity (Mus musculus [5]) was “Non-toxic” and the Time (Rattus norvegicus) was 168.42 s. The Activity (Mus musculus [6]) was “inactive”.

For `COc1ccc(-c2nnc(-n3c(/C=C/c4ccc(Cl)cc4)nc4ccccc4c3=O)s2)cc1`, the Activity (Mus musculus [1]) was “inactive”, the Activity (Mus musculus [8]) was 300 mg/kg and the Activity (Mus musculus [2]) was “inactive”. The Activity (Mus musculus [3]) was “inactive”, the Time (Rattus norvegicus) was 177.08 s and the Activity (Mus musculus [6]) was “inactive”. The Activity (Mus musculus [9]) was 300 mg/kg.

For `O=c1c2ccccc2nc(/C=C/c2ccc(Cl)cc2)n1-c1nnc(/C=C/c2ccccc2)s1`, the Activity (Mus musculus [1]) was “inactive”, the Activity (Mus musculus [2]) was “inactive” and the Activity (Mus musculus [3]) was “inactive”. The Activity (Mus musculus [4]) was “Non-toxic”, the Activity (Mus musculus [5]) was “Non-toxic” and the Time (Rattus norvegicus) was 73.83 s. For the same compound, the Activity (Mus musculus [6]) was “inactive”.

With `Cc1ccc(-c2nnc(-n3c(/C=C/c4cccc(Cl)c4)nc4ccccc4c3=O)s2)cc1` the Activity (Mus musculus [1]) was “inactive”, the Activity (Mus musculus [2]) was “inactive” and the Activity (Mus musculus [3]) was “inactive”. For the same compound, the Activity (Mus musculus [4]) was “Non-toxic”, the Activity (Mus musculus [5]) was “Non-toxic” and the Time (Rattus norvegicus) was 100.76 s. The Activity (Mus musculus [6]) was “inactive”.

With `Cc1ccc(-c2nnc(-n3c(/C=C/c4ccncc4)nc4ccccc4c3=O)s2)cc1` the Activity (Mus musculus [1]) was “inactive”, the Activity (Mus musculus [2]) was “inactive” and the Activity (Mus musculus [3]) was “inactive”. For the same compound, the Activity (Mus musculus [5]) was “Non-toxic”, the Time (Rattus norvegicus) was 131.51 s and the Activity (Mus musculus [6]) was “inactive”. It also gave an Activity (Mus musculus [9]) of 100 mg/kg.

`O=c1c2ccccc2nc(/C=C/c2cccc(Cl)c2)n1-c1nnc(-c2ccccc2)s1` was tested, and the Activity (Mus musculus [1]) was “inactive”, the Activity (Mus musculus [2]) was “inactive” and the Activity (Mus musculus [3]) was “inactive”. For the same compound, the Activity (Mus musculus [5]) was “Non-toxic”, the Activity (Mus musculus [16]) was “Toxic” and the Time (Rattus norvegicus) was 132.69 s. For the same compound, the Activity (Mus musculus [6]) was “inactive” and the Activity (Mus musculus [9]) was 300 mg/kg.

In the case of `Cc1ccc(-c2nnc(-n3c(/C=C/c4ccc(Cl)cc4)nc4ccccc4c3=O)s2)cc1`, the Activity (Mus musculus [1]) is reported as “inactive”, the Activity (Mus musculus [2]) is reported as “inactive” and the Activity (Mus musculus [3]) is reported as “inactive”. The Activity (Mus musculus [5]) was “Non-toxic”, the Time (Rattus norvegicus) was 150.1 s and the Activity (Mus musculus [6]) was “inactive”. It also gave an Activity (Mus musculus [9]) of 300 mg/kg.

For `O=c1c2ccccc2nc(/C=C/c2cccc(Cl)c2)n1-c1nnc(-c2ccc(Cl)cc2)s1`, the Activity (Mus musculus [1]) was “inactive”, the Activity (Mus musculus [2]) was “inactive” and the Activity (Mus musculus [3]) was “inactive”. For the same compound, the Activity (Mus musculus [4]) was “Non-toxic”, the Activity (Mus musculus [5]) was “Non-toxic” and the Time (Rattus norvegicus) was 163.75 s. The Activity (Mus musculus [6]) was “inactive”.
